Measurements from ChEMBL document CHEMBL3822398, “Design, synthesis and in vitro biological evaluation of short-chain C12-sphinganine and its 1,2,3-triazole analogs as potential antimicrobial and anti-biofilm agents” (Eur J Med Chem, 2016).
≈ marks a conversion by molar mass, not a printed value. Calls of active or inactive are those of the source. No cut-off for these calls is given here.

Assays:
Candida parapsilosis [1] = assay: Antifungal activity against Candida parapsilosis MTCC 1744 incubated for 24 hrs at 30 degC by well diffusion method; type: functional; conditions: Lodderomyces parapsilosis, MTCC 1744, 24 h
[Candida] aaseri [2] = Antifungal activity against Candida aaseri MTCC 1962 incubated for 24 hrs at 30 degC by well diffusion method; type: functional; conditions: Yamadazyma aaseri, MTCC 1962, 24 h
Candida albicans [3] = assay: Antifungal activity against Candida albicans MTCC 3017 incubated for 24 hrs at 30 degC by well diffusion method; type: functional; conditions: MTCC 3017, 24 h
Nakaseomyces glabratus [4] = assay: Fungicidal activity against Candida glabrata MTCC 3019 incubated for 24 hrs; type: functional; conditions: MTCC 3019, 24 h
Candida albicans [5] = assay: Antifungal activity against Candida albicans MTCC 1637 incubated for 24 hrs at 30 degC by well diffusion method; type: functional; conditions: MTCC 1637, 24 h
Candida albicans [6] = assay: Antifungal activity against Candida albicans MTCC 3958 incubated for 24 hrs at 30 degC by well diffusion method; type: functional; conditions: MTCC 3958, 24 h
Candida albicans [7] = assay: Antifungal activity against Candida albicans MTCC 227 incubated for 24 hrs at 30 degC by well diffusion method; type: functional; conditions: MTCC 227, 24 h
Pichia sporocuriosa [8] = assay: Antifungal activity against Issatchenkia hanoiensis MTCC 4755 incubated for 24 hrs at 30 degC by well diffusion method; type: functional; conditions: MTCC 4755, 24 h
Candida albicans [9] = assay: Induction of ROS accumulation in Candida albicans MTCC 227 sessile cells at 2 to 8 ug/ml incubated for 24 hrs by DCFH-DA dye based microplate reader analysis; type: functional, organism-based
Candida albicans [10] = assay: Fungicidal activity against Candida albicans MTCC 3017 incubated for 24 hrs; type: functional; conditions: MTCC 3017, 24 h
Candida albicans [11] = assay: Fungicidal activity against Candida albicans MTCC 4748 incubated for 24 hrs; type: functional; conditions: MTCC 4748, 24 h
Candida albicans [12] = assay: Antifungal activity against Candida albicans MTCC 3018 incubated for 24 hrs at 30 degC by well diffusion method; type: functional; conditions: MTCC 3018, 24 h
Pichia kudriavzevii [13] = assay: Fungicidal activity against Candida krusei MTCC 3020 incubated for 24 hrs; type: functional; conditions: MTCC 3020, 24 h
Candida albicans [14] = assay: Fungicidal activity against Candida albicans MTCC 3018 incubated for 24 hrs; type: functional; conditions: MTCC 3018, 24 h
Candida albicans [15] = assay: Fungicidal activity against Candida albicans MTCC 3958 incubated for 24 hrs; type: functional; conditions: MTCC 3958, 24 h
Pichia kudriavzevii [16] = assay: Antifungal activity against Candida krusei MTCC 3020 incubated for 24 hrs at 30 degC by well diffusion method; type: functional; conditions: MTCC 3020, 24 h
Candida parapsilosis [17] = assay: Fungicidal activity against Candida parapsilosis MTCC 1744 incubated for 24 hrs; type: functional; conditions: Lodderomyces parapsilosis, MTCC 1744, 24 h
Pichia sporocuriosa [18] = assay: Fungicidal activity against Issatchenkia hanoiensis MTCC 4755 incubated for 24 hrs; type: functional; conditions: MTCC 4755, 24 h
[Candida] aaseri [19] = Fungicidal activity against Candida aaseri MTCC 1962 incubated for 24 hrs; type: functional; conditions: Yamadazyma aaseri, MTCC 1962, 24 h
Candida albicans [20] = assay: Fungicidal activity against Candida albicans MTCC 7315 incubated for 24 hrs; type: functional; conditions: MTCC 7315, 24 h
Candida albicans [21] = assay: Fungicidal activity against Candida albicans MTCC 1637 incubated for 24 hrs; type: functional; conditions: MTCC 1637, 24 h
Candida albicans [22] = assay: Fungicidal activity against Candida albicans MTCC 183 incubated for 24 hrs; type: functional; conditions: MTCC 183, 24 h
Candida albicans [23] = assay: Antifungal activity against Candida albicans MTCC 4748 incubated for 24 hrs at 30 degC by well diffusion method; type: functional; conditions: MTCC 4748, 24 h
Candida albicans [24] = assay: Fungicidal activity against Candida albicans MTCC 227 incubated for 24 hrs; type: functional; conditions: MTCC 227, 24 h
Candida albicans [25] = assay: Antifungal activity against Candida albicans MTCC 854 incubated for 24 hrs at 30 degC by well diffusion method; type: functional; conditions: MTCC 854, 24 h
Candida albicans [26] = assay: Fungicidal activity against Candida albicans MTCC 854 incubated for 24 hrs; type: functional; conditions: MTCC 854, 24 h
Nakaseomyces glabratus [27] = assay: Antifungal activity against Candida glabrata MTCC 3019 incubated for 24 hrs at 30 degC by well diffusion method; type: functional; conditions: MTCC 3019, 24 h
Candida albicans [28] = assay: Antifungal activity against Candida albicans MTCC 183 incubated for 24 hrs at 30 degC by well diffusion method; type: functional; conditions: MTCC 183, 24 h
Candida albicans [29] = assay: Antifungal activity against Candida albicans MTCC 7315 incubated for 24 hrs at 30 degC by well diffusion method; type: functional; conditions: MTCC 7315, 24 h
Staphylococcus aureus [30] = assay: Antibacterial activity against Staphylococcus aureus MLS16 MTCC 2940 incubated for 24 hrs at 37 degC by well diffusion method; type: functional; conditions: MLS16 MTCC 2940, 24 h
Bacillus subtilis [31] = assay: Antibacterial activity against Bacillus subtilis MTCC 121 incubated for 24 hrs at 37 degC by well diffusion method; type: functional; conditions: MTCC 121, 24 h
Raoultella planticola [32] = assay: Bactericidal activity against Klebsiella planticola MTCC 530 incubated for 24 hrs; type: functional; conditions: MTCC 530, 24 h
Escherichia coli [33] = assay: Bactericidal activity against Escherichia coli MTCC 739 incubated for 24 hrs; type: functional; conditions: MTCC 739, 24 h
Pseudomonas aeruginosa = assay: Antibacterial activity against Pseudomonas aeruginosa MTCC 2453 incubated for 24 hrs at 37 degC by well diffusion method; type: functional; conditions: MTCC 2453, 24 h
Micrococcus luteus [34] = assay: Bactericidal activity against Micrococcus luteus MTCC 2470 incubated for 24 hrs; type: functional; conditions: MTCC 2470, 24 h
Staphylococcus aureus [35] = assay: Bactericidal activity against Staphylococcus aureus MLS16 MTCC 2940 incubated for 24 hrs; type: functional; conditions: MLS16 MTCC 2940, 24 h
Staphylococcus aureus [36] = assay: Bactericidal activity against Staphylococcus aureus MTCC 96 incubated for 24 hrs; type: functional; conditions: MTCC 96, 24 h
Escherichia coli [37] = assay: Antibacterial activity against Escherichia coli MTCC 739 incubated for 24 hrs at 37 degC by well diffusion method; type: functional; conditions: MTCC 739, 24 h
Micrococcus luteus [38] = assay: Antibacterial activity against Micrococcus luteus MTCC 2470 incubated for 24 hrs at 37 degC by well diffusion method; type: functional; conditions: MTCC 2470, 24 h
Bacillus subtilis [39] = assay: Bactericidal activity against Bacillus subtilis MTCC 121 incubated for 24 hrs; type: functional; conditions: MTCC 121, 24 h
Staphylococcus aureus [40] = assay: Antibacterial activity against Staphylococcus aureus MTCC 96 incubated for 24 hrs at 37 degC by well diffusion method; type: functional; conditions: MTCC 96, 24 h
Raoultella planticola [41] = assay: Antibacterial activity against Klebsiella planticola MTCC 530 incubated for 24 hrs at 37 degC by well diffusion method; type: functional; conditions: MTCC 530, 24 h

## Clc1ccc(COC(Cn2ccnc2)c2ccc(Cl)cc2Cl)c(Cl)c1 (stereo not given) [MICONAZOLE]
Candida parapsilosis [1]
  MIC: 7.8 µg/mL (≈ 18.7 µM)
[Candida] aaseri [2]
  MIC: 7.8 µg/mL (≈ 18.7 µM)
Candida albicans [3]
  MIC: 7.8 µg/mL (≈ 18.7 µM)
Nakaseomyces glabratus [4]
  MFC: 15.6 µg/mL (≈ 37.5 µM)
Candida albicans [5]
  MIC: 7.8 µg/mL (≈ 18.7 µM)
Candida albicans [6]
  MIC: 7.8 µg/mL (≈ 18.7 µM)
Candida albicans [7]
  MIC: 7.8 µg/mL (≈ 18.7 µM)
Pichia sporocuriosa [8]
  MIC: 7.8 µg/mL (≈ 18.7 µM)
Candida albicans [9]
  Activity: Active
Candida albicans [10]
  MFC: 7.8 µg/mL (≈ 18.7 µM)
Candida albicans [11]
  MFC: 7.8 µg/mL (≈ 18.7 µM)
Candida albicans [12]
  MIC: 7.8 µg/mL (≈ 18.7 µM)
Pichia kudriavzevii [13]
  MFC: 7.8 µg/mL (≈ 18.7 µM)
Candida albicans [14]
  MFC: 7.8 µg/mL (≈ 18.7 µM)
Candida albicans [15]
  MFC: 15.6 µg/mL (≈ 37.5 µM)
Pichia kudriavzevii [16]
  MIC: 7.8 µg/mL (≈ 18.7 µM)
Candida parapsilosis [17]
  MFC: 7.8 µg/mL (≈ 18.7 µM)
Pichia sporocuriosa [18]
  MFC: 7.8 µg/mL (≈ 18.7 µM)
[Candida] aaseri [19]
  MFC: 7.8 µg/mL (≈ 18.7 µM)
Candida albicans [20]
  MFC: 7.8 µg/mL (≈ 18.7 µM)
Candida albicans [21]
  MFC: 15.6 µg/mL (≈ 37.5 µM)
Candida albicans [22]
  MFC: 7.8 µg/mL (≈ 18.7 µM)
Candida albicans [23]
  MIC: 7.8 µg/mL (≈ 18.7 µM)
Candida albicans [24]
  MFC: 15.6 µg/mL (≈ 37.5 µM)
Candida albicans [25]
  MIC: 7.8 µg/mL (≈ 18.7 µM)
Candida albicans [26]
  MFC: 15.6 µg/mL (≈ 37.5 µM)
Nakaseomyces glabratus [27]
  MIC: 7.8 µg/mL (≈ 18.7 µM)
Candida albicans [28]
  MIC: 7.8 µg/mL (≈ 18.7 µM)
Candida albicans [29]
  MIC: 7.8 µg/mL (≈ 18.7 µM)

## CCCCCCCCC[C@@H](O)[C@H](CO)n1cc(-c2ccccc2)nn1
Staphylococcus aureus [30]
  MIC: 15.6 µg/mL (≈ 45.2 µM)
Candida parapsilosis [1]
  MIC: 31.2 µg/mL (≈ 90.3 µM)
[Candida] aaseri [2]
  MIC: 31.2 µg/mL (≈ 90.3 µM)
Candida albicans [3]
  MIC: 62.5 µg/mL (≈ 181 µM)
Nakaseomyces glabratus [4]
  MFC: 62.5 µg/mL (≈ 181 µM)
Candida albicans [5]
  MIC: 125 µg/mL (≈ 362 µM)
Candida albicans [6]
  MIC: 62.5 µg/mL (≈ 181 µM)
Candida albicans [7]
  MIC: 31.2 µg/mL (≈ 90.3 µM)
Pichia sporocuriosa [8]
  MIC: 62.5 µg/mL (≈ 181 µM)
Bacillus subtilis [31]
  MIC: 15.6 µg/mL (≈ 45.2 µM)
Raoultella planticola [32]
  MBC: 62.5 µg/mL (≈ 181 µM)
Escherichia coli [33]
  MBC: > 250 µg/mL
Pseudomonas aeruginosa
  MIC: > 250 µg/mL
Micrococcus luteus [34]
  MBC: 7.8 µg/mL (≈ 22.6 µM)
Candida albicans [10]
  MFC: 125 µg/mL (≈ 362 µM)
Candida albicans [11]
  MFC: 125 µg/mL (≈ 362 µM)
Staphylococcus aureus [35]
  MBC: 31.2 µg/mL (≈ 90.3 µM)
Candida albicans [12]
  MIC: 125 µg/mL (≈ 362 µM)
Pichia kudriavzevii [13]
  MFC: 62.5 µg/mL (≈ 181 µM)
Candida albicans [14]
  MFC: 125 µg/mL (≈ 362 µM)
Staphylococcus aureus [36]
  MBC: 15.6 µg/mL (≈ 45.2 µM)
Escherichia coli [37]
  MIC: > 250 µg/mL
Candida albicans [15]
  MFC: 125 µg/mL (≈ 362 µM)
Pichia kudriavzevii [16]
  MIC: 62.5 µg/mL (≈ 181 µM)
Micrococcus luteus [38]
  MIC: 3.9 µg/mL (≈ 11.3 µM)
Bacillus subtilis [39]
  MBC: 15.6 µg/mL (≈ 45.2 µM)
Candida parapsilosis [17]
  MFC: 62.5 µg/mL (≈ 181 µM)
Pichia sporocuriosa [18]
  MFC: 125 µg/mL (≈ 362 µM)
[Candida] aaseri [19]
  MFC: 31.2 µg/mL (≈ 90.3 µM)
Candida albicans [20]
  MFC: 62.5 µg/mL (≈ 181 µM)
Candida albicans [21]
  MFC: 125 µg/mL (≈ 362 µM)
Staphylococcus aureus [40]
  MIC: 7.8 µg/mL (≈ 22.6 µM)
Candida albicans [22]
  MFC: 62.5 µg/mL (≈ 181 µM)
Candida albicans [23]
  MIC: 125 µg/mL (≈ 362 µM)
Candida albicans [24]
  MFC: 62.5 µg/mL (≈ 181 µM)
Raoultella planticola [41]
  MIC: 31.2 µg/mL (≈ 90.3 µM)
Candida albicans [25]
  MIC: 62.5 µg/mL (≈ 181 µM)
Candida albicans [26]
  MFC: 62.5 µg/mL (≈ 181 µM)
Nakaseomyces glabratus [27]
  MIC: 62.5 µg/mL (≈ 181 µM)
Candida albicans [28]
  MIC: 62.5 µg/mL (≈ 181 µM)
Candida albicans [29]
  MIC: 62.5 µg/mL (≈ 181 µM)
